For one series, the system named is H358 (KRAS G12C). As to the kind of experiment: Tumor cell proliferation inhibition assay (CellTiter-Glo), H358. The format is cell-based, Human. The following applies: Homo sapiens, NCI-H358, 72 h, 10% fetal bovine serum. The protocol: (§1) The H358, H23 or MIA-Paca2 cells were digested, centrifuged and resuspended, and the cell density was measured with a Scepter automatic cell counter. Cells were diluted to a solution containing 44,000 cells per milliliter, then added to a 96-well culture plate at 90 μL per well. The 96-well plate was placed in a 5% CO2 incubator at 37° C., and after the cells were cultured for 24 hours, different concentrations of the compounds to be tested were added. Cells were incubated with compounds in the presence of 10% fetal bovine serum for 72 hours. The inhibition of cell growth was assessed by measuring ATP levels by using the CellTiter-Glo Luminescent Cell Viability Assay Kit (details in manufacturer's instructions). In brief, 30 μL of CellTiter-Glo reagent was added to each well and the plate was shaken for 10 minutes to induce cell lysis, then the fluorescent signal was detected and recorded with a Fluoroskan Ascent FL (Thermo). Maximum signal values were obtained from cells treated with DMSO for 72 hours. Minimum signal values were obtained with medium only (zero cell number). Inhibition rate %=(maximum signal value-compound signal value)/(maximum signal value-minimum signal value)×100%. Data were processed by using Graphpad prism5 software. IC50 values were calculated using a sigmoidal dose-response curve.

A further series relates to MIA-Paca2 (KRAS G12C). As to the kind of experiment: Tumor cell proliferation inhibition assay (CellTiter-Glo), MIA-Paca2. The format is cell-based, Human. The following applies: 10% fetal bovine serum. The method, then:
as §1

The nature of series [1]: Pharmacokinetic (PK) experiment in rats by gavage. The format is in vivo. The following applies: rat, plasma, po, male SD rats, 20 mg/kg. The method, then: Male SD rats, weighing 180-250 g, were fasted overnight before the test and stomach administrated with the test compound at 20 mg/kg. 15 minutes, 30 minutes, and 1, 2, 4, 6, 8, and 24 hours after administration, blood was taken from the end of the tail of the fracture, about 0.3 mL per time point, then placed in a centrifuge tube containing K2-EDTA, and centrifuged (2000 g, 10 min, at 4° C.). Plasma was collected and stored in an ultra-low temperature freezer at −80° C. 50 μL of plasma samples were vortexed with 135 μL of acetonitrile (containing 1 μg/mL internal standard) for protein precipitation and centrifuged, and the supernatant was collected for LC-MS/MS analysis.
After the rats oral administrated with the Pyridopyrimidinone compounds provided by the present disclosure, the absorption is good, and the blood exposure is relatively high. […] Cmax refers to the maximum plasma concentration, T1/2 is the half-life, AUC0-24 refers to the area under the 0-24 hour time-concentration curve, and AUC0-inf refers to the area under the 0-Inf time-concentration curve.

Some results are limits rather than exact numbers.

Broadly, the melting point is the temperature of the solid-liquid transition. What is called IC50 is the concentration at which inhibition is half-maximal. A low value points to greater potency in that assay. As a reminder, the AUC(0-inf) is the area under the concentration-time curve extrapolated to infinity. A high value points to more exposure. As a reminder, the Cmax is the peak of the concentration-time curve. One may read the Tmax as the time at which the peak concentration occurs. What is called half-life is the time needed for the level to fall by half in the phase considered. A low value points to fast loss.

Compound `C=CC(=O)N1CCN(c2nc(=O)n(-c3c(C)ncnc3C(C)C)c3nc(-c4c(F)ccc5ccoc45)c(F)cc23)[C@@H](C)C1` [Compound 116, 4-((S)-4-acryloyl-2-methylpiperazin-1-yl)-6-fluoro-7-(6-fluorobenzofuran-7-yl)-1-(4-isopropyl-6-methylpyrimidin-5-yl)pyrido[2,3-d]pyrimidin-2(1H)-one] showed a melting point of 143 to 146 °C. The same compound had an IC50 with H358 (KRAS G12C) of 50 to 100 nM. Moreover, the IC50 with MIA-Paca2 (KRAS G12C) (Homo sapiens, MIA PaCa-2, 72 h) was 100 to 500 nM.

The compound `C=CC(=O)N1CCN(c2nc(=O)n(-c3c(C)ccnc3C(C)C)c3nc(-c4c(F)c(O)cc5ccoc45)c(Cl)cc23)[C@@H](C)C1` [Compound 110, 4-((S)-4-acryloyl-2-methylpiperazin-1-yl)-6-chloro-7-(6-fluoro-5-hydroxybenzofuran-7-yl)-1-(2-isopropyl-4-methylpyridin-3-yl)pyrido[2,3-d]pyrimidin-2(1H)-one] registered a melting point of 92 to 104 °C. Besides, the IC50 in the series on H358 (KRAS G12C) lay in the range of 10 to 50 nM.

With `C=CC(=O)N1CCN(c2nc(=O)n(-c3c(C)ccnc3C(C)C)c3nc(-c4c(OC)ccc5ccoc45)c(F)cc23)[C@@H](C)C1` [Compound 109, 4-((S)-4-acryloyl-2-methylpiperazin-1-yl)-6-fluoro-1-(2-isopropyl-4-methylpyridin-3-yl)-7-(6-methoxybenzofuran-7-yl)pyrido[2,3-d]pyrimidin-2(1H)-one], the melting point lay within 156 to 158 °C. Moreover, the IC50 in the series with H358 (KRAS G12C) is 50 to 100 nM. This compound gave an IC50 in the series on MIA-Paca2 (KRAS G12C) (Homo sapiens, MIA PaCa-2, 72 h) of 100 to 500 nM.

`C=CC(=O)N1CCN(c2nc(=O)n(-c3c(CO)cccc3C(C)C)c3nc(-c4c(F)ccc5ccoc45)c(F)cc23)[C@@H](C)C1` [Compound 126, 4-((S)-4-acryloyl-2-methylpiperazin-1-yl)-6-fluoro-7-(6-fluorobenzofuran-7-yl)-1-(2-(hydroxymethyl)-6-isopropylphenyl)pyrido[2,3-d]pyrimidin-2(1H)-one] registered a melting point of 146 to 149 °C. The compound also showed an IC50 with H358 (KRAS G12C) of 50 to 100 nM. In the series on MIA-Paca2 (KRAS G12C) (Homo sapiens, MIA PaCa-2, 72 h), this compound returned an IC50 of 100 to 500 nM.

In the case of `COC/C=C/C(=O)N1CCN(c2nc(=O)n(-c3c(C)ccnc3C(C)C)c3nc(-c4cc5ccoc5cc4F)c(F)cc23)[C@@H](C)C1` [Compound 115, (S,E)-6-fluoro-7-(6-fluorobenzofuran-5-yl)-1-(2-isopropyl-4-methylpyridin-3-yl)-4-(4-(4-methoxybut-2-enoyl)-2-methylpiperazin-1-yl)pyrido[2,3-d]pyrimidin-2(1H)-one], the melting point lay within 136 to 138 °C. In the series with H358 (KRAS G12C), this compound showed an IC50 greater than 500 nM. This compound displayed an IC50 in the series with MIA-Paca2 (KRAS G12C) (Homo sapiens, MIA PaCa-2, 72 h) greater than 500 nM.

In the case of `C=CC(=O)N1CCN(c2nc(=O)n(-c3c(C)nc(C)nc3C(C)C)c3nc(-c4c(F)ccc5ccoc45)c(F)cc23)[C@@H](C)C1` [Compound 117, 4-((S)-4-acryloyl-2-methylpiperazin-1-yl)-6-fluoro-7-(6-fluorobenzofuran-7-yl)-1-(4-isopropyl-2,6-dimethylpyrimidin-5-yl)pyrido[2,3-d]pyrimidin-2(1H)-one], the melting point fell in the range of 133 to 136 °C. Also, the IC50 in the series on H358 (KRAS G12C) was 50 to 100 nM. In the series on MIA-Paca2 (KRAS G12C) (Homo sapiens, MIA PaCa-2, 72 h), this compound came in with an IC50 of 50 to 100 nM.

Take `C=CC(=O)N1CCN(c2nc(=O)n(-c3c(C#N)cccc3C(C)C)c3nc(-c4c(F)ccc5ccoc45)c(Cl)cc23)[C@@H](C)C1` [Compound 124, 2-(4-((S)-4-acryloyl-2-methylpiperazin-1-yl)-6-chloro-7-(6-fluorobenzofuran-7-yl)-2-oxopyrido[2,3-d]pyrimidin-1(2H)-yl)-3-isopropylbenzonitrile]: the melting point fell in the range of 164 to 166 °C. The same compound displayed an IC50 with H358 (KRAS G12C) of less than 10 nM. The IC50 in the series on MIA-Paca2 (KRAS G12C) (Homo sapiens, MIA PaCa-2, 72 h) is 10 to 50 nM.

The compound `Cc1ccnc(C(C)C)c1-n1c(=O)nc(N2CCN(C(=O)/C=C/CN(C)C)C[C@@H]2C)c2cc(F)c(-c3cc4ccoc4cc3F)nc21` [Compound 114, (S,E)-4-(4-(4-(dimethylamino)but-2-enoyl)-2-methylpiperazin-1-yl)-6-fluoro-7-(6-fluorobenzofuran-5-yl)-1-(2-isopropyl-4-methylpyridin-3-yl)pyrido[2,3-d]pyrimidin-2(1H)-one] yielded a melting point of 162 to 164 °C. In the series on H358 (KRAS G12C), the IC50 was greater than 500 nM. Further, in the series with MIA-Paca2 (KRAS G12C) (Homo sapiens, MIA PaCa-2, 72 h), the IC50 is greater than 500 nM.

In turn, `C=CC(=O)N1CCN(c2nc(=O)n(-c3c(C(C)C)ncnc3C(C)C)c3nc(-c4c(F)ccc5ccoc45)c(Cl)cc23)[C@@H](C)C1` [Compound 118, 4-((S)-4-acryloyl-2-methylpiperazin-1-yl)-6-chloro-1-(4,6-diisopropylpyrimidin-5-yl)-7-(6-fluorobenzofuran-7-yl)pyrido[2,3-d]pyrimidin-2(1H)-one] displayed a melting point of 254 to 256 °C. In addition, in the series on H358 (KRAS G12C), the IC50 was less than 10 nM.

`C/C=C/C(=O)N1CCN(c2nc(=O)n(-c3c(C)ccnc3C(C)C)c3nc(-c4cc5ccoc5cc4F)c(F)cc23)[C@@H](C)C1` [Compound 113, (S,E)-4-(4-(but-2-enoyl)-2-methylpiperazin-1-yl)-6-fluoro-7-(6-fluorobenzofuran-5-yl)-1-(2-isopropyl-4-methylpyridin-3-yl)pyrido[2,3-d]pyrimidin-2(1H)-one] had a melting point of 155 to 157 °C. The IC50 in the series on H358 (KRAS G12C) was greater than 500 nM. Besides, the IC50 in the series on MIA-Paca2 (KRAS G12C) (Homo sapiens, MIA PaCa-2, 72 h) was greater than 500 nM.

Turning to `C=CC(=O)N1CCN(c2nc(=O)n(-c3c(C)ccnc3C(C)C)c3nc(-c4c(F)ccc5ccsc45)c(F)cc23)[C@@H](C)C1` [Compound 71, 4-((S)-4-Acryloyl-2-methylpiperazin-1-yl)-6-fluoro-7-(6-fluorobenzo[b]thiophen-7-yl)-1-(2-isopropyl-4-methylpyridin-3-yl)pyrido[2,3-d]pyrimidin-2(1H)-one], the melting point is 148 to 150 °C. For the same compound, the IC50 with H358 (KRAS G12C) was in the range of 10 to 50 nM. This compound gave an IC50 with MIA-Paca2 (KRAS G12C) (Homo sapiens, MIA PaCa-2, 72 h) of 50 to 100 nM.

Compound `C=CC(=O)N1C[C@H](C)N(c2nc(=O)n(-c3c(C)ccnc3C(C)C)c3nc(-c4c(F)ccc5ccoc45)c(F)cc23)C[C@H]1C` [Compound 89, 4-((2S,5R)-4-acryloyl-2,5-dimethylpiperazin-1-yl)-6-fluoro-7-(6-fluorobenzofuran-7-yl)-1-(2-isopropyl-4-methylpyridin-3-yl)pyrido[2,3-d]pyrimidin-2(1H)-one] showed a melting point of 147 to 149 °C. Further, in series [1], the AUC(0-inf) amounted to 14100 ng·h/mL, the Cmax was 4300 ng/mL, the Tmax turned out to be 1 h and the half-life is 2.11 h. The AUC(0-t) in series [1] (read-out: AUC0-24) stood at 14000 ng·h/mL. Besides, the IC50 in the series on H358 (KRAS G12C) lay within 10 to 50 nM. The IC50 in the series with MIA-Paca2 (KRAS G12C) (72 hours) was 10 to 50 nM.

In turn, `C=CC(=O)N1CCN(c2nc(=O)n(-c3c(C)ccnc3C(C)C)c3nc(-c4c(F)ccc5ncsc45)c(F)cc23)[C@@H](C)C1` [Compound 78, 4-((S)-4-acryloyl-2-methylpiperazin-1-yl)-6-fluoro-7-(6-fluorobenzo[d]thiazol-7-yl)-1-(2-isopropyl-4-methylpyridin-3-yl)pyrido[2,3-d]pyrimidin-2(1H)-one] returned a melting point of 158 to 162 °C. In the series on H358 (KRAS G12C), this compound came in with an IC50 of 100 to 500 nM. Moreover, in the series on MIA-Paca2 (KRAS G12C) (Homo sapiens, MIA PaCa-2, 72 h), the IC50 is greater than 500 nM.

In the case of `C=CC(=O)N1CCN(c2nc(=O)n(-c3c(C#N)cccc3C(C)C)c3nc(-c4c(F)ccc5ccoc45)c(F)cc23)[C@@H](C)C1` [Compound 123, 2-(4-((S)-4-acryloyl-2-methylpiperazin-1-yl)-6-fluoro-7-(6-fluorobenzofuran-7-yl)-2-oxopyrido[2,3-d]pyrimidin-1(2H)-yl)-3-isopropylbenzonitrile], the melting point is 146 to 149 °C. Besides, in the series on H358 (KRAS G12C), the IC50 lay within 10 to 50 nM. In the series with MIA-Paca2 (KRAS G12C) (Homo sapiens, MIA PaCa-2, 72 h), this compound had an IC50 of 50 to 100 nM.

Compound `C=CC(=O)N1CCN(c2nc(=O)n(-c3c(C)ccnc3C(C)C)c3nc(-c4c(F)c(OC)cc5ccoc45)c(Cl)cc23)[C@@H](C)C1` [Compound 111, 4-((S)-4-acryloyl-2-methylpiperazin-1-yl)-6-chloro-7-(6-fluoro-5-methoxybenzofuran-7-yl)-1-(2-isopropyl-4-methylpyridin-3-yl)pyrido[2,3-d]pyrimidin-2(1H)-one] yielded a melting point of 101 to 113 °C. This compound also gave an IC50 with H358 (KRAS G12C) of 50 to 100 nM.

For `C=CC(=O)N1CCN(c2nc(=O)n(-c3c(C)ccnc3C(C)C)c3nc(-c4c(C)ccc5ccoc45)c(F)cc23)[C@@H](C)C1` [Compound 108, 4-((S)-4-acryloyl-2-methylpiperazin-1-yl)-6-fluoro-1-(2-isopropyl-4-methylpyridin-3-yl)-7-(6-methylbenzofuran-7-yl)pyrido[2,3-d]pyrimidin-2(1H)-one], the melting point was 151 to 163 °C. In the series on H358 (KRAS G12C), this compound came in with an IC50 of 10 to 50 nM. Moreover, the IC50 in the series on MIA-Paca2 (KRAS G12C) (Homo sapiens, MIA PaCa-2, 72 h) fell in the range of 100 to 500 nM.

The record behind these values is US20220389013A1, “PYRIDOPYRIMIDINONE COMPOUNDS AND APPLICATIONS THEREOF” (BeBetter Med Inc., priority 2020, published 2022).
